Our source for the activity and Activity values is ChEMBL document CHEMBL2074249, “Fruit juices inhibit organic anion transporting polypeptide-mediated drug uptake to decrease the oral availability of fexofenadine” (Clin Pharmacol Ther, 2002).

What all share (assay type): functional, cell-based
The target of series [1] is T1, Oatp3 (Solute carrier organic anion transporter family member 1A5) (Rattus norvegicus, UniProt O88397).
T1 sequence (O88397 whole entry): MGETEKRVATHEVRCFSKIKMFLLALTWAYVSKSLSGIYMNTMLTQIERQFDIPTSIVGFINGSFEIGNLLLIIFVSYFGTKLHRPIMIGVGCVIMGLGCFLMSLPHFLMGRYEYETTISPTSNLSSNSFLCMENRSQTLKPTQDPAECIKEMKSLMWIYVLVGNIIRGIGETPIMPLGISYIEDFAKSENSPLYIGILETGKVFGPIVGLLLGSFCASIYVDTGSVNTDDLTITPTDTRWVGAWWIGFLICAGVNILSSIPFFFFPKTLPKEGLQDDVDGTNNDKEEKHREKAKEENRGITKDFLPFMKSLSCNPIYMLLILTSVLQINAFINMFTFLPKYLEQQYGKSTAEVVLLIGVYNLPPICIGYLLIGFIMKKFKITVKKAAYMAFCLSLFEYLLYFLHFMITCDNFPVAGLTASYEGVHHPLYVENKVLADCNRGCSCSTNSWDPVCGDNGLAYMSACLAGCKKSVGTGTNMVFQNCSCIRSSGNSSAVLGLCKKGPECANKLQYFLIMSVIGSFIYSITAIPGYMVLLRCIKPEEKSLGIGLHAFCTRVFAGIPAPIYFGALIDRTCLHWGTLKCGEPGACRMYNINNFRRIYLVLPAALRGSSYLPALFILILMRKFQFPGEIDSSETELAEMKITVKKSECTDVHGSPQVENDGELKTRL
The series is described as follows: TP_TRANSPORTER: inhibition of Fexofenadine uptake (Fexofenadine: 1? uM, Hesperidin: 50 uM) in Oatp3-expressing HeLa cells. Also on record: scale not given: the % may be the effect or the level left. Conditions: human, HeLa cells that express Oatp3, probe fexofenadine; read-out: Activity.

Series [2] deals with T2, Solute carrier organic anion transporter family member 1A1 (Rattus norvegicus, UniProt P46720).
T2 sequence (P46720 whole entry): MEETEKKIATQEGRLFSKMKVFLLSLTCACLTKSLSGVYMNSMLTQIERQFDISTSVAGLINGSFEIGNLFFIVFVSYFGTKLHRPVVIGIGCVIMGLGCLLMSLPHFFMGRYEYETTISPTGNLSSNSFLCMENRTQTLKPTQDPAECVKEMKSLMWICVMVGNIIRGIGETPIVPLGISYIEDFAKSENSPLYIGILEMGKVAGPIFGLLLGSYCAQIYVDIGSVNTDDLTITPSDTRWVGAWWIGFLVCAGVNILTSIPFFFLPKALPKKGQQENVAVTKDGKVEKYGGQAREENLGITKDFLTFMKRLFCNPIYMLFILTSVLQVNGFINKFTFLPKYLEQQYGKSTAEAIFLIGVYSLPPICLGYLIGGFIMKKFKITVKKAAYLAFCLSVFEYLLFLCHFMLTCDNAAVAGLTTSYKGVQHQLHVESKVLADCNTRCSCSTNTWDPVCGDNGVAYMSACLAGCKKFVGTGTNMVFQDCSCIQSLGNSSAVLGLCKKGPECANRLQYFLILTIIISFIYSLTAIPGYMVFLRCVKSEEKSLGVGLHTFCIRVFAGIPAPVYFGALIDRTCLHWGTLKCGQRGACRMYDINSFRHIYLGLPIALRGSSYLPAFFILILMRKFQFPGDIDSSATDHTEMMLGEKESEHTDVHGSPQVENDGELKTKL
The series is described as follows: TP_TRANSPORTER: inhibition of Fexofenadine uptake (Fexofenadine: 1 uM, Orange juice: 5 %) in Oatp1-expressing HeLa cells. Conditions: human.

Series [3] addresses T3, Solute carrier organic anion transporter family member 1A2 (Homo sapiens, UniProt P46721).
T3 sequence (P46721 whole entry): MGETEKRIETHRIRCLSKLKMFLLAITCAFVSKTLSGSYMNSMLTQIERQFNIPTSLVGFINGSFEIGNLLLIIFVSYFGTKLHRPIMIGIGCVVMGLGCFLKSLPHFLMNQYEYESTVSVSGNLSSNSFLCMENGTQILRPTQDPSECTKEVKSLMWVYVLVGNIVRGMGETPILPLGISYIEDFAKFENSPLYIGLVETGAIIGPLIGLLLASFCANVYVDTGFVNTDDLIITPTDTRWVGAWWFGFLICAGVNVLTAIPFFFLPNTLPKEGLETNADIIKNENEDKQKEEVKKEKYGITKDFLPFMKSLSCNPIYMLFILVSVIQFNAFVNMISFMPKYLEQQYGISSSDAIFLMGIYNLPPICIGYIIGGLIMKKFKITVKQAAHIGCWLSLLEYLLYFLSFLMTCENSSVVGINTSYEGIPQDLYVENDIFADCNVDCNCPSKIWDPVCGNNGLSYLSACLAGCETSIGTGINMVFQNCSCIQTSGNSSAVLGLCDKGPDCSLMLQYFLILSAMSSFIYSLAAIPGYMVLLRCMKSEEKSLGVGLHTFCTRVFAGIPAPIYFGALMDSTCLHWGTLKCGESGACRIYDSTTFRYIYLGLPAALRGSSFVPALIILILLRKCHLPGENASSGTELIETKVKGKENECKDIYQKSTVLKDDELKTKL
Description: TP_TRANSPORTER: inhibition of Fexofenadine uptake (Fexofenadine: 1 uM, Orange juice: 5 %) in OATP-A-expressing HeLa cells.

Series [4] has as its target T4, Solute carrier organic anion transporter family member 1A5 (Rattus norvegicus, UniProt O88397).
T4 sequence (O88397 whole entry): T1 sequence (O88397 whole entry)
The series is described as follows: TP_TRANSPORTER: inhibition of Fexofenadine uptake (Fexofenadine: 1 uM, Orange juice: 5 %) in Oatp3-expressing HeLa cells. Conditions: human.

Series [5] addresses T5, Solute carrier organic anion transporter family member 1A4 (Rattus norvegicus, UniProt O35913).
T5 sequence (O35913 whole entry): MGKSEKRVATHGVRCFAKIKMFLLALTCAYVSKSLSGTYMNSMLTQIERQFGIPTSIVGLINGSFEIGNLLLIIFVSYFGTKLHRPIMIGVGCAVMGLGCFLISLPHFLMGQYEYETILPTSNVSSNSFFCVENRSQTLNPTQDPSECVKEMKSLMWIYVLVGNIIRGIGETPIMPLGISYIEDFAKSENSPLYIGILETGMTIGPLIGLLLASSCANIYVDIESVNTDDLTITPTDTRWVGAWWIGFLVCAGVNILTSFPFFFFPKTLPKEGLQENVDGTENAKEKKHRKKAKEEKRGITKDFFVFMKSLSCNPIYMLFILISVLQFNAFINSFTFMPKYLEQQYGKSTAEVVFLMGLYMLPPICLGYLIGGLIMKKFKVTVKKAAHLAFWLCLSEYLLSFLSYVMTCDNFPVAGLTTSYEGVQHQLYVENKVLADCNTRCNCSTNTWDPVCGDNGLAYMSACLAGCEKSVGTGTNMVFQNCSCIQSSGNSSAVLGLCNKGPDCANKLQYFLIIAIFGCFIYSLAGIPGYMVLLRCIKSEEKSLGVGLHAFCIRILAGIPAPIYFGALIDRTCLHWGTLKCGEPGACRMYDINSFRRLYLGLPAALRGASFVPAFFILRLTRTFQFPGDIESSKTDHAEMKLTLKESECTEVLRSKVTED
Description: TP_TRANSPORTER: inhibition of Fexofenadine uptake (Fexofenadine: 1 uM, Orange juice: 5 %) in Oatp2-expressing HeLa cells. The note with it: human.

Series [6] deals with T1, Oatp3 (Solute carrier organic anion transporter family member 1A5). The series is described as follows: TP_TRANSPORTER: inhibition of Fexofenadine uptake (Fexofenadine: 1? uM, Quercetin: 5 uM) in Oatp3-expressing HeLa cells. On the set-up: scale not given: the % may be the effect or the level left. Conditions: human, HeLa cells that express Oatp3, probe fexofenadine; read-out: Activity.

Series [7] has as its target ATP-dependent translocase ABCB1 (Homo sapiens, UniProt P08183). The series is described as follows: TP_TRANSPORTER: inhibition of Vinblastine transepithelial transport (basal to apical) (Vinblastine: 5 uM, Grapefruit juice: 5 %) in MDR1-expressing LLC-PK1 cells. The note with it: pig.
In series [8] the target is T2, Solute carrier organic anion transporter family member 1A1. The series is described as follows: TP_TRANSPORTER: inhibition of Fexofenadine uptake (Fexofenadine: 1 uM, Grapefruit juice: 5 %) in Oatp1-expressing HeLa cells. The note with it: human.
Series [9] has as its target T3, Solute carrier organic anion transporter family member 1A2. The series is described as follows: TP_TRANSPORTER: inhibition of Fexofenadine uptake (Fexofenadine: 1 uM, Grapefruit juice: 5 %) in OATP-A-expressing HeLa cells.
For series [10], the target named is T5, Solute carrier organic anion transporter family member 1A4. The series is described as follows: TP_TRANSPORTER: inhibition of Fexofenadine uptake (Fexofenadine: 1 uM, Grapefruit juice: 5 %) in Oatp2-expressing HeLa cells. Conditions: human.
Series [11] has as its target T1, Oatp3 (Solute carrier organic anion transporter family member 1A5). The series is described as follows: TP_TRANSPORTER: inhibition of Fexofenadine uptake (Fexofenadine: 1? uM, Hesperitin: 5 uM) in Oatp3-expressing HeLa cells. On the set-up: scale not given: the % may be the effect or the level left. Conditions: human, HeLa cells that express Oatp3, probe fexofenadine; read-out: Activity.

The target is the same in series [12]. Description: TP_TRANSPORTER: inhibition of Fexofenadine uptake (Fexofenadine: 1? uM, Naringin: 5 uM) in Oatp3-expressing HeLa cells. Also on record: scale not given: the % may be the effect or the level left. The note with it: human, HeLa cells that express Oatp3, probe fexofenadine; read-out: Activity.
Series [13] concerns the target T2, Solute carrier organic anion transporter family member 1A1. Description: TP_TRANSPORTER: inhibition of Fexofenadine uptake (Fexofenadine: 1 uM, Apple juice: 5 %) in Oatp1-expressing HeLa cells. The note with it: human.
In series [14] the target is T4, Solute carrier organic anion transporter family member 1A5. The series is described as follows: TP_TRANSPORTER: inhibition of Fexofenadine uptake (Fexofenadine: 1 uM, Apple juice: 5 %) in Oatp3-expressing HeLa cells. Conditions: human.
The target in series [15] is T1, Oatp3 (Solute carrier organic anion transporter family member 1A5). Description: TP_TRANSPORTER: inhibition of Fexofenadine uptake (Fexofenadine: 1? uM, Bergamottin: 50 uM) in Oatp3-expressing HeLa cells. Conditions: human, HeLa cells that express Oatp3, probe fexofenadine; read-out: Activity. Also on record: scale not given: the % may be the effect or the level left.

For series [16] the target is unchanged. The series is described as follows: TP_TRANSPORTER: inhibition of Fexofenadine uptake (Fexofenadine: 1? uM, 5-Methoxypsoralen: 50 uM) in Oatp3-expressing HeLa cells. Also on record: scale not given: the % may be the effect or the level left. The note with it: human, HeLa cells that express Oatp3, probe fexofenadine; read-out: Activity.
The target is the same in series [17]. Description: TP_TRANSPORTER: inhibition of Fexofenadine uptake (Fexofenadine: 1? uM, Naringenin: 50 uM) in Oatp3-expressing HeLa cells. Also on record: scale not given: the % may be the effect or the level left. The note with it: human, HeLa cells that express Oatp3, probe fexofenadine; read-out: Activity.
The target is the same in series [18]. The series is described as follows: TP_TRANSPORTER: inhibition of Fexofenadine uptake (Fexofenadine: 1? uM, 6',7'-Dihydroxybergamottin: 50 uM) in Oatp3-expressing HeLa cells. Also on record: scale not given: the % may be the effect or the level left. The note with it: human, HeLa cells that express Oatp3, probe fexofenadine; read-out: Activity.

Sequence of ATP-dependent translocase ABCB1 (P08183 whole entry): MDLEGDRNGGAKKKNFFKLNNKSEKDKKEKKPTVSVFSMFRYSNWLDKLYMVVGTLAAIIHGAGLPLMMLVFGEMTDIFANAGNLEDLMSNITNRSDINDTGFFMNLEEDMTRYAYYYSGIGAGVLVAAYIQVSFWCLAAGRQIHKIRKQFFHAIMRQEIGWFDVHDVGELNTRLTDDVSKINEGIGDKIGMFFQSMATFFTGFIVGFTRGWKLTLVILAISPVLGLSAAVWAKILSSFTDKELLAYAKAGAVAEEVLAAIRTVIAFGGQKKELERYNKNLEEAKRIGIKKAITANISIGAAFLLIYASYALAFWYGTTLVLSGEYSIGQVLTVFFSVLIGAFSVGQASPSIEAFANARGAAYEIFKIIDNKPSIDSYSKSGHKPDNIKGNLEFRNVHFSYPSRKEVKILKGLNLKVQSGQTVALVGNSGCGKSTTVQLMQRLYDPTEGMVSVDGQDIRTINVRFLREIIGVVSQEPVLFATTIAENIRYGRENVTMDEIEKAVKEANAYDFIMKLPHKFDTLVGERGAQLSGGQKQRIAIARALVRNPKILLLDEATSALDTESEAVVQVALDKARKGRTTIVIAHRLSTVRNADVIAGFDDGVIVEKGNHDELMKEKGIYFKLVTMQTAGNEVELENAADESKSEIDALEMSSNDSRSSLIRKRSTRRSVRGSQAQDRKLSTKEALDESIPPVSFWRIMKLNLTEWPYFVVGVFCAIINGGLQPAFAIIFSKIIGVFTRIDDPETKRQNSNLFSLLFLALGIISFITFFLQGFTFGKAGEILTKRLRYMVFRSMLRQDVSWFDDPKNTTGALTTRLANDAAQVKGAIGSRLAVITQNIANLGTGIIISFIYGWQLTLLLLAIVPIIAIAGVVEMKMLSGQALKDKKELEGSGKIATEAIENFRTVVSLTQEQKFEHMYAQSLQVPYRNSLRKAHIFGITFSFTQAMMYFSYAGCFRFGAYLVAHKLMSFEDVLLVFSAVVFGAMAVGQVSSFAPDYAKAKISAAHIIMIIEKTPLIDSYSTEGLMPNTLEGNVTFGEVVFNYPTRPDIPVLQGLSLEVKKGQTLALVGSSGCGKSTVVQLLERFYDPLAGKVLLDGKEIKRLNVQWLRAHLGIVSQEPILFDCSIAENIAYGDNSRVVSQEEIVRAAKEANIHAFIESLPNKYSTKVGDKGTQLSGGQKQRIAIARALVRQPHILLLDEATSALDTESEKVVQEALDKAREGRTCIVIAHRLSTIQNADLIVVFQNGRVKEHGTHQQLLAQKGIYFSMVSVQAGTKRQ

As to `COc1ccc([C@@H]2CC(=O)c3c(O)cc(O[C@@H]4O[C@H](CO[C@@H]5O[C@@H](C)[C@H](O)[C@@H](O)[C@H]5O)[C@@H](O)[C@H](O)[C@H]4O)cc3O2)cc1O` [HESPERIDIN], the activity at 50 µM in series [1] worked out at 51%.

Turning to ORANGE JUICE, the Activity result in [2] is “inhibitor [(at a rough estimate) 25 % of control]”; in [3] it was “inhibitor [(at a rough estimate) 10 % of control]”; in series [4], “inhibitor [(at a rough estimate) 10 % of control]”; in series [5], “inhibitor [(at a rough estimate) <5 % of control]”.

As to `O=c1c(O)c(-c2ccc(O)c(O)c2)oc2cc(O)cc(O)c12` [QUERCETIN], the activity at 5 µM in series [6] was determined as 52%.

For the molecule GRAPEFRUIT JUICE, the Activity entry in series [7] is “is not an inhibitor [-]”; in series [8], “inhibitor [(at a rough estimate) <0 % of control]”; in series [9], “inhibitor [(at a rough estimate) 10 % of control]”; in series [10], “inhibitor [(at a rough estimate) 20 % of control]”.

Turning to `COc1ccc([C@@H]2CC(=O)c3c(O)cc(O)cc3O2)cc1O` [HESPERETIN], the activity at 5 µM in series [11] stood at 40%.

With `C[C@@H]1O[C@@H](O[C@H]2[C@H](Oc3cc(O)c4c(c3)O[C@H](c3ccc(O)cc3)CC4=O)O[C@H](CO)[C@@H](O)[C@@H]2O)[C@H](O)[C@H](O)[C@H]1O` [NARINGIN], in series [12], the activity at 5 µM was found to be 36%.

Take APPLE JUICE: the Activity result in [13] and in [14] was “inhibitor [(at a rough estimate) 5 % of control]” in each case.

On to `CC(C)=CCC/C(C)=C/COc1c2ccoc2cc2oc(=O)ccc12` [BERGAMOTTIN], for which the activity at 50 µM in series [15] was 22%.

On to `COc1c2ccoc2cc2oc(=O)ccc12` [BERGAPTEN], for which the activity at 50 µM in series [16] was found to be 32%.

As for `O=C1C[C@@H](c2ccc(O)cc2)Oc2cc(O)cc(O)c21` [NARINGENIN], the activity at 50 µM in series [17] was determined as 10%.

Turning to `C/C(=C\COc1c2ccoc2cc2oc(=O)ccc12)CC[C@@H](O)C(C)(C)O`, the activity at 50 µM in [18] came to 22%.
